Measurements from patent US6521595B1, “Nonimmunosuppressive [γ-hydroxy-methylleucine4] cyclosporin A, hair growth stimulator and external composition for skin using the same” (LG Chemical, Ltd., priority 1999, dated 2003).

test system: C57BL/6 mice; assay: In vivo hair growth promoting effects on shaved back of C57BL/6 mice; set-up: species or system mouse; conditions: seven week-old female C57BL/6 mice in telogen, 100 ul applied once a day for 30 days, compared to vehicle control
Description: Seven week-old, female C57BL/6 mice were housed in groups of 7 to 11 animals. Mice were in the telogen stage of the hair cycle when used, as indicated by the pinkish color of the skin.
The mice's hair of the region of back was shaved by a clipper. After a one day for adaptation 100 ul of [γ-hydroxy-methylleucine^4] cyclosporin A was applied on the shaved portion once a day for a period of 30 days. After determining the degree of hair growth by the naked eye, the results were photographed. […] In contrast, animals treated with the derivatives (the 11 derivatives mentioned in REFERENCE EXAMPLES 6 to 11) were almost at the level of the control group, having virtually no effects (data not shown).
The test expanded to the derivatives modified on No. 4 amino acid, methylleucine. The results of the hair growth-stimulating effects on the derivatives in which the original No. 4 amino acid, methylleucine, is substituted with the similarly structured methylisoleucine, methylvaline, leucine, isoleucine, methylalanine (REFERENCE EXAMPLES 1 to 5) are represented in FIG. 17 to FIG. 23, wherein the hair growth-stimulating effects of […], [methylvaline^4] (FIG. 20), [leucine^4] (FIG. 21), [isoleucine^4] (FIG. 22), [methylalanine^4]

Row | Substance | degree of hair growth (hair growth promoting effect) by the naked eye, photographed
1 | [Ile^4] cyclosporin A [[isoleucine^4]] | much lesser than cyclosporin A
2 | [MeVal^4] cyclosporin A [[methylvaline^4]] | much lesser than cyclosporin A
3 | [Leu^4] cyclosporin A [[leucine^4]] | much lesser than cyclosporin A
4 | [MeAla^4] cyclosporin A [[methylalanine^4]] | much lesser than cyclosporin A
5 | [methylisoleucine^4] cyclosporin A [[methylleucine^4]] | much lesser than cyclosporin A
